Measured values: article PMC9781117, “New 5-Aryl-1,3,4-Thiadiazole-Based Anticancer Agents: Design, Synthesis, In Vitro Biological Evaluation and In Vivo Radioactive Tracing Studies” (Pharmaceuticals, 2022)
≈ marks a conversion by molar mass, not a printed value.

Legend:
[1] = tested on: MCF-7 breast adenocarcinoma cells; assay: MTT cytotoxicity assay, MCF-7; assay type: cell-based, human; conditions: for IC50: Homo sapiens, MCF7, MTT, 48 h, means ± SD of three independent experiments; for SI Values MCF-7: selectivity index, MCF-7 over normal Vero cells
Experimental: (§1) The in vitro cytotoxicity of the synthesized 1,3,4-thiadiazole derivatives against breast adenocarcinoma cells (MCF-7) and human hepatocellular carcinoma (HepG2) cell lines were evaluated by the MTT assay, using 5-Fluorouracil (5-FU) as a positive control.
(§2) Human hepatocellular carcinoma (HepG2) cells and breast adenocarcinoma (MCF7) cells were purchased from the American Type Culture Collection (ATCC, USA). Under 37 °C with 5% CO2 in a humid incubator, cells were propagated using RPMI supplemented with 10% fetal bovine serum (FBS) and 1% v/v penicillin-streptomycin.
(§3) According to Tim Mosmann’s approach, an MTT assay was performed to assess the antiproliferative properties of the compounds. In short, HepG2 or MCF7 cells (0.5 × 105) were grown in flat-bottom 96-well microplates in 180 μL/well RPMI media supplemented with 10% fetal bovine serum, 2μmol/mL L-glutamine, 250 ng/mL fungizone, and 100 units/mL penicillin-streptomycin solutions at 37 °C in a CO2 incubator. Following incubation, 180 μL/well of the new serum-free medium was added to each well after the old media had been withdrawn. After that, cells were exposed to 20 μL of various concentrations of the compounds (50–0.75 μg/mL) and were incubated for 48 h at 37 °C in a humidified 5% CO2 environment. The MTT solution (20 µL/well) was added and incubated for a further 4 h. The plate was agitated at room temperature while acidified isopropanol (160 μL/well) was added to dissolve the formazan crystals. The absorbance at 570 nm was then determined photometrically using the microplate ELISA reader (FLUOstar Omega, BMG, Labtech, Germany). Graph-Pad PRISM version 6 was used to determine the IC50 for each compound.

[2] = tested on: HepG2 human hepatocellular carcinoma cells; assay: MTT cytotoxicity assay, HepG2; assay type: cell-based; conditions: for IC50: Homo sapiens, MTT, 48 h, means ± SD of three independent experiments; for SI Values HepG2: selectivity index, HepG2 over normal Vero cells
Experimental: as §1, §2, §3

[3] = tested on: normal mammalian Vero cells; assay: Cytotoxicity against normal Vero cells; assay type: cell-based; conditions: Chlorocebus sabaeus
HepG2 cells [4] = assay: AO/EB fluorescent stain, apoptotic and necrotic cells, HepG2; assay type: cell-based, human; conditions: HepG2, IC50 concentration, 48 h, vs untreated control cells
Experimental: (§4) Morphologically, there are three different modes of cell death: apoptosis, autophagy, and necrosis (types I, II, and III, respectively).
(§5) Fluorescence labeling with acridine orange/ethidium bromide (AO/EB) was used to determine the ratio between apoptosis and necrosis to evaluate the mode of cell death. HepG2 and MCF-7 cells were seeded in six-well plates with DMEM media supplemented with 10% FBS and allowed to settle overnight at 37 °C with 5% CO2 in a humidified incubator. […] 5-FU was used as a positive standard for both cell lines. After incubation, cells were collected by trypsinization and stained using a dye solution of AO and EB in PBS (1:1) for 20 min. The cells were examined using fluorescence microscopy. Each sample had at least 500 counted cells, and the percentage of apoptotic or necrotic cells was determined by […] the number of apoptotic or necrotic cells by the total number of cells counted by 100. The experiment was performed three times in triplicate.

HepG2 cells [5] = assay: Annexin V-FITC/PI flow cytometric apoptosis analysis, HepG2; assay type: cell-based, human; conditions: HepG2, IC50 concentration, 48 h
Source text: (§6) Propidium iodide (PI) and annexin-V-FITC were used in a flow cytometric investigation on HepG2 and MCF-7 cells to better understand the manner of cell death caused by 4e and 4i, respectively. […] Apoptosis evasion is one of the hallmarks of cancer progression because the loss of apoptosis control prolongs cancer cell survival and allows for the accumulation of mutations that can promote angiogenesis and cell proliferation, disrupt differentiation, and increase invasiveness throughout tumor progression, thus one of the key purposes of apoptosis is to prevent cancer.
(§7) The apoptotic activity of compounds 4e and 4i was measured using the annexin V fluorescein isothiocyanate (FITC)/propidium iodide (PI) apoptosis detection kit (BioVision, USA, Catalog #: K101-25) following the manufacturer’s instructions. […] Cells were collected by trypsinization, washed twice using PBS and then 1 × 10^5 cells were resuspended in PBS and stained for 15 min at room temperature in the dark with 5 µL Annexin V-FITC and 5 µL PI in 1x binding buffer. Annexin V-FITC binding was analyzed by a BD FACS Calibur flow cytometry (Ex = 488 nm; Em = 530 nm) using a FITC signal detector (FL1) and PI staining by the phycoerythrin emission signal detector (FL2).

HepG2 cells [6] = assay: Cell cycle analysis by flow cytometry (PI), HepG2; assay type: cell-based, human; conditions: HepG2, IC50 concentration, 48 h, vs control
Experimental: (§8) The cell cycle is made up of several intricately linked processes that enable the cell to develop and multiply. In cancer, the genetic and epigenetic abnormalities in the cell cycle-related genes result in an unchecked proliferation of mutated cells and alteration of cell cycle progression. For further investigation of the inhibitory effects of 4e and 4i compounds on the proliferation of HepG2 and MCF-7 cells, respectively, we examined the cell cycle distribution and DNA content after 48 h of the treatment. […] Consequently, the arrest in the G2/M phase mediates apoptosis via a mitochondrial apoptotic pathway.
(§9) Immediately after incubation, trypsinization was used to collect the cells, which were then washed twice with ice-cold PBS before being fixed in 70% (v/v) ethanol at […], re-suspended with 0.1 mg/mL RNase, stained with […] propidium iodide (PI), and incubated for 1 h. The DNA contents of the cells were then analyzed by flow cytometry using an FL2 (λex/em 493/636 nm) signal detector (Abcam, UK, ab139418).

[7] = tested on: Bax/Bcl-2 ratio in HepG2 cells; assay: ELISA Bax/Bcl-2 ratio, HepG2; assay type: cell-based, human; conditions: HepG2, IC50, 48 h, compared to control and 5-FU treated cells
Source text: (§10) The overexpression of antiapoptotic proteins, such as Bcl-2, and the underexpression of proapoptotic proteins, such as Bax, are two common ways that the apoptotic pathway is suppressed in cancer. […] Therefore, a rise in Bax expression and a decrease in Bcl-2 can trigger the apoptotic process and eradicate cancer cells. […] This in turn activates the intrinsic pathway of apoptosis; thus, we next examined their effect on caspase 9 levels. Caspases (cysteine aspartyl-specific proteases), a class of cysteine proteins that cleave target proteins, play a role in executing apoptosis. […] Moreover, we evaluated the effect of the two compounds on the vascular endothelial growth factor VEGF expression. VEGF is one of the pro-angiogenic proteins; upon binding to VEGF receptors in the endothelial cells, it activates phosphorylation, causing increased angiogenesis and resulting in abnormal vasculature in the tumor tissue.
(§11) The protein levels of Bax, Bcl2, caspase 9, and VGEF were estimated using an ELISA assay. […] Cells from each group were scraped off and washed with PBS and then cell pellets were collected from each flask. […] The supernatants were then used for ELISA assays in accordance with the manufacturer’s instructions for the ELISA kits (Sunlong Biotech, China), and absorbance and calculations were carried out using an ELISA reader (FLUOstar Omega, BMG, Labtech, Germany).

caspase 9 in HepG2 cells = assay: ELISA caspase 9 level, HepG2; assay type: cell-based, human; conditions: HepG2, IC50, 48 h
Source text: as §10, §11

VEGF in HepG2 cells = assay: ELISA VEGF level, HepG2; assay type: cell-based, human; conditions: HepG2, IC50, 48 h, compared to control and 5-FU treated cells
Source text: as §10, §11

[8] = tested on: breast cancer MCF-7 cells; set-up: method as in PMID 31313595; conditions: cited from earlier work
MCF-7 cells [9] = assay: AO/EB fluorescent stain, apoptotic and necrotic cells, MCF-7; assay type: cell-based, human; conditions: MCF-7, IC50 concentration, 48 h, vs untreated control cells
Experimental: as §4, §5

MCF-7 cells [10] = assay: Annexin V-FITC/PI flow cytometric apoptosis analysis, MCF-7; assay type: cell-based, human; conditions: MCF-7, IC50 concentration, 48 h
Source text: as §6, §7

MCF-7 cells [11] = assay: Cell cycle analysis by flow cytometry (PI), MCF-7; assay type: cell-based, human; conditions: MCF-7, IC50 concentration, 48 h, vs control, p < 0.05
Experimental: as §8, §9

[12] = tested on: Bax/Bcl-2 ratio in MCF-7 cells; assay: ELISA Bax/Bcl-2 ratio, MCF-7; assay type: cell-based, human; conditions: MCF-7, IC50, 48 h, compared to control and 5-FU treated cells
Source text: as §10, §11

caspase 9 in MCF-7 cells = assay: ELISA caspase 9 level, MCF-7; assay type: cell-based, human; conditions: MCF-7, IC50, 48 h
Source text: as §10, §11

VEGF in MCF-7 cells = assay: ELISA VEGF level, MCF-7; assay type: cell-based, human; conditions: MCF-7, IC50, 48 h, compared to control and 5-FU treated cells
Source text: as §10, §11

lung A549 cancer cells = tested on: lung A549 cancer cells; set-up: method as in PMID 31313595; conditions: cited from earlier work
[13] = tested on: cervical HeLa cancer cells; set-up: method as in PMID 31313595; conditions: cited from earlier work

## CCOc1ccccc1N1CCN(CC(=O)Nc2nnc(-c3ccc(Cl)cc3)s2)CC1 [Compound 4e, N-(5-(4-Chlorophenyl)-1,3,4-Thiadiazol-2-yl)-2-(4-(2-Ethoxyphenyl)Piperazin-1-yl)Acetamide]
[1]
  IC50: 5.36 ± 0.36 µg/mL (≈ 11.7 µM)
  SI Values MCF-7: 28.79
[2]; HepG2, 4b vs 4a, 4e vs 4f
  fold increase in efficacy relative to parent analogue: 12 fold
[2]; HepG2
  IC50: 3.13 ± 0.2 µg/mL (≈ 6.83 µM)
[2]
  SI Values HepG2: 49.20
[3]
  IC50: 154 ± 32.2 µg/mL (≈ 337 µM)
HepG2 cells [4]
  apoptosis and necrosis (AO/EB stain): significantly enhanced apoptosis and necrosis
HepG2 cells [5]
  main mode of cell death (annexin-V/PI): apoptosis
HepG2 cells [5]; vs untreated cells
  total cell death (annexin-V/PI): induced significant total cell death
HepG2 cells [6]
  cell cycle arrest: significantly arrested HepG2 cells in the S phase
[7]
  Bax/Bcl-2 ratio: significant increase
Caspase 9 in HepG2 cells
  caspase 9 level: significantly enhanced
VEGF in HepG2 cells
  VEGF level: significantly suppressed

## CCN1CCN(CC(=O)Nc2nc(C(C)(C)C)c(Cc3ccc(Cl)cc3)s2)CC1 [VI]
[8]
  IC50: 12.5 µM

## O=C(CN1CCC(Cc2ccccc2)CC1)Nc1nnc(-c2ccc(Cl)cc2)s1 [Compound 4i, 2-(4-Benzylpiperidin-1-yl)-N-(5-(4-Chlorophenyl)-1,3,4-Thiadiazol-2-yl)Acetamide]
[1]
  IC50: 2.32 ± 0.21 µg/mL (≈ 5.43 µM)
  SI Values MCF-7: 36.70
[2]; HepG2
  IC50: 6.51 ± 0.03 µg/mL (≈ 15.2 µM)
[2]
  SI Values HepG2: 13.10
[3]
  IC50: 85.29 ± 0.52 µg/mL (≈ 200 µM)
MCF-7 cells [9]
  apoptosis and necrosis (AO/EB stain): significantly enhanced apoptosis and necrosis
MCF-7 cells [10]
  main mode of cell death (annexin-V/PI): apoptosis
MCF-7 cells [10]; vs untreated cells
  total cell death (annexin-V/PI): induced significant total cell death
MCF-7 cells [11]
  cell cycle arrest: induced a significant cell growth arrest for MCF-7 cells at the G2/M phase
[12]
  Bax/Bcl-2 ratio: significant increase
Caspase 9 in MCF-7 cells
  caspase 9 level: significantly enhanced
VEGF in MCF-7 cells
  VEGF level: significantly suppressed

## CC(C)(C)c1nc(NC(=O)CN2CCN(c3ccccc3)CC2)sc1Cc1ccc(Cl)cc1 [VII]
Lung A549 cancer cells
  IC50: 0.2 µM
[13]
  IC50: 4.2 µM
